{
  "source": "patent US11584937B2",
  "about": "“Compositions and methods for controlling plant growth and development” (THE TRUSTEES OF THE UNIVERSITY OF PENNSYLVANIA, priority 2014, dated 2023)",
  "key": {"[1]": {"system": "APETALA1 (AP1)", "assay": "AP1 induction (qRT-PCR, pAP1:AP1-GFP imaging) in GR-fusion transgenic plants after treatment", "format": "in vivo, Arabidopsis thaliana", "settings": "4 hours", "method": "For mock treatment, 0.01% ethanol (EtOH) with 0.01% Silwet L-77 was used as control. […] For test of AP1 induction in single or double hemizygous transgenic lines (FIG. 4A, C, and figure S9) treatments were performed by spraying 16-day-old plants grown on plates once with 10 μM dexamethasone and/or 10 μM paclobutrazol. Tissues were harvested after 4 hours. […] 16-day-old 35S:AlcR pAlcA:mir156f/- 35S:LFY-GR/- plants were sprayed with 10 μM dexamethasone plus 10 μM paclobutrazol and exposed to ethanol vapor or water control. Tissues were harvested after 4 hours. […]\nFor qRT-PCR, RNA was isolated form entire plants after the switch to reproduction using TRIzol reagent (Invitrogen) and RNeasy Mini kits (Qiagen) and processed as previously described (45). […] Quantitative real-time PCR was performed using Power SYBR green mastermix (Applied Biosystems). The mean and standard error were determined using three technical replicates from one representative experiments. […]\nFor imaging of GFP fluorescence, inflorescence apices were dissected to remove older flowers and imaged using a Leica confocal microscope (Leica, LCS SL) equipped with an argon-krypton ion laser with the appropriate filter sets for visualizing GFP. […]"}, "[2]": {"system": "Arabidopsis", "assay": "Number of rosette leaves (vegetative phase) and of cauline leaves and branches (first inflorescence phase) after hormone or inhibitor treatment", "format": "in vivo, Arabidopsis thaliana", "method": "Plants were grown at 23° C. in a 16 h light/8 h dark cycle. The following plant lines were previously described: lfy-1 null and lfy-2 hypomorph mutants; lfy-6 null mutants, 35S:LFY-GR; 35S:LFY; gal-3; gai; pRGA:RGA-GFP; pRGA:RGA-HA; gal-3 rgl2-1 rga-2 35S:RGA-GR; pSPL9:rSPL-FLAG; 35S:AlcR pAlcA:mir156f; and 35S:SPL9-GR and pAP1:AP1-GFP. […] Most plants were in the Columbia background except for 35S:LFY-GR, pRGA:RGA-GFP, and lfy-6 mutants, which were in the Landsberg erecta background. To avoid comparisons of plants in different ecotype backgrounds, we performed crosses between homozygous transgenic plants and conducted all subsequent analyses in the F1 population. […] Statistical analyses were performed on plant phenotypes that are normally distributed. The population size was determined by expedience (tissue or plant amount that could reasonably be obtained).\nFor mock treatment, 0.01% ethanol (EtOH) with 0.01% Silwet L-77 was used as control. […] For paclobutrazol treatment in wild type to examine the number of rosette and cauline leaves formed (figure S8), wild-type plants were first germinated on MS plates. After 4 days plants were transferred either to MS plates containing 1 μM paclobutrazol or to control MS plates and grown for 6 more days. At day 10, the plants were transplanted to soil. […] For test of the number of rosette or cauline leaves produced under conditions of increased DELLA accumulation/activity (FIG. 4E), WT, 35S:LFY/-, pSPL9:rSPL9-FLAG/-, and 35S:LFY/- pSPL9:rSPL9-FLAG/- were first germinated on MS plates, followed by transfer to MS plates containing 1 μM paclobutrazol or to control MS plates from day 4 to day 10 of age. At day 10, the plants were transplanted onto soil."}, "[3]": {"settings": "wild-type plants, MS plates containing 1 μM paclobutrazol day 4 to day 10, versus control plates"}},
  "data": [
    {"smiles": "CC(C)(C)[C@@H](O)[C@@H](Cc1ccc(Cl)cc1)n1cncn1", "note": "(racemic) [paclobutrazol]", "values": [
      {"measurement": "pAP1:AP1-GFP expression in young flower primordia", "setting": "[1]; 35S:LFY-GR plants, Dex 10 μM plus PAC 10 μM, confocal imaging", "value": "increase in AP1-GFP"},
      {"measurement": "production of AP1 in young flower primordia", "setting": "[1]; LFY-GR plants, 10 μM paclobutrazol simultaneously with 10 μM dexamethasone, relative to either alone", "value": "increased production of AP1"},
      {"measurement": "number of cauline leaves formed", "setting": "[2]; 35S:LFY pSPL9:rSPL9-FLAG plants, 1 μM paclobutrazol day 4 to day 10, mean±SEM, 35S:LFY plants 2.5±0.2", "value": "0.3±0.1"},
      {"measurement": "number of branches and cauline leaves (duration of the first inflorescence phase)", "setting": "[2]; [3]", "value": "fewer"},
      {"measurement": "number of rosette leaves (duration of the vegetative phase)", "setting": "[2]; [3]", "value": "more"}
    ]}
  ]
}
